For test [1], the system named is lizard skin. Nature of the test: Lizard skin assay: melanosome dispersion (skin darkening) in vitro. The format is cell-based, Anolis carolinensis. As to conditions: tested in the range 10^-12 to 10^-9 M; compared to half-maximal effective dose of α-MSH (10^-9 M). As to the method:
(§1) The peptides described above were examined to determine the relative potencies of the peptides in respect to the stimulation of a melanosome dispersion in vitro using the frog (Rana pipiens) and the lizard (Anolis carolinensis) [see Science 213:1025 (1981)]. These assays are recognized by the scientific communitty to be a fairly accurate representation of results that would be expected when the test substances are administered to vertebrates in vivo; if activity is found when the test substances are tested in the frog skin assay and the lizard skin assay, similar activity would be expected if the test substances are administered to vertebrates, i.e, darkening in the two assays would indicate that darkening would also occur in vertebrates. These assays measure the amount of light reflected from the surface of the skins in vitro. In response to melanotropic peptides, melanosomes within integumental melanocytes migrate from a perinuclear position into the dendritic processes of the pigment cells. This centrifugal organellar dispersion results in a change of color (darkening) of the skins which is measured by a Photovolt reflectometer and is expressed as the percent response compared to the initial (time zero) reflectance value. | ^a = all peptide derivatives were tested in the range of 10^-12 t | 10^-9 M concentration; compared to the halfmaximal effective dose of | aMSH in the frog skin assay (10^-10 M), or in the lizard skin assay | (10^-9 M).

The test system of test [2] is crude cell membranes of B-16 mouse melanoma cells. Nature of the test: Affinity of peptide to homogenized crude cell membranes (HPLC of supernatant and pellet extract). The test is classed as binding. As to the method: 0.3 μmole of peptide SHU-9002 was dissolved in 1 ml solution of homogenized crude cell membranes, obtained from about 0.6 million B-16 mouse melanoma cells, in phosphate buffer. After 5 hrs, the suspension was centrifuged at 10,000×g for 10 min. The pellet was saved and the supernatant subjected to HPLC on a C-18 column.
The pellet saved above was treated with DMSO-0.1% aq. TFA mixture (1:1), centrifuged as before and the supernatant subjected to HPLC as earlier.

For test [3], the system named is frog skin. Nature of the test: Frog skin assay: melanosome dispersion (skin darkening) in vitro. As to conditions: for Creeping potency (percentage skin darkening at a particular dose increases with time): frog skin bioassay; for Potencies Relative to α-MSH, Frog Skin Assay: tested in the range 10^-12 to 10^-9 M, compared to half-maximal effective dose of α-MSH (10^-10 M). The test is classed as cell-based, Rana pipiens. As to the method:
as §1

Non-standard residues stand in square brackets, D forms with d. Residues, ends and D or L forms follow the SMILES beside them.

Turning to `CCCC[C@H](NC(=O)[C@H](CO)NC(=O)[C@H](Cc1ccc(O)cc1)NC(=O)[C@H](CO)NC(C)=O)C(=O)N[C@H]1CCC(=O)N[C@@H](CCCNC(=N)N)C(=O)N[C@@H](CCCNC(=N)N)C(=O)NCCCC[C@@H](C(=O)N2CCC[C@H]2C(=O)N[C@H](C(N)=O)C(C)C)NC(=O)CNC(=O)[C@H](Cc2c[nH]c3ccccc23)NC(=O)[C@H](CCCNC(=N)N)NC(=O)[C@@H](Cc2ccccc2)NC(=O)[C@H](Cc2c[nH]cn2)NC1=O` [SHU 9002], the “Potencies Relative to α-MSH, Lizard Skin Assay” value in test [1] came out at 2. Further, the “Presence of peptide in supernatant after incubation with cell membranes (HPLC, C-18)” value in test [2] (0.3 μmole peptide in 1 ml membrane homogenate from about 0.6 million cells, phosphate buffer, 5 hrs, centrifuged 10,000×g 10 min) is “no evidence for the presence of the peptide SHU-9002 in the supernatant”. Besides, the “Affinity to the cell membranes” value in test [2] (conclusion from supernatant and pellet HPLC) is “marked affinity”. In test [2] (pellet of the 5 hrs incubation), the “Peptide recovered from membrane pellet (HPLC after DMSO-0.1% aq. TFA 1:1 treatment)” value is “elution pattern corresponding to the SHU-9002 was obtained”. Further, in test [3], the “Creeping potency (percentage skin darkening at a particular dose increases with time)” value was “exhibited creeping potency” and the “Potencies Relative to α-MSH, Frog Skin Assay” value stood at 25. In the case of `CCCC[C@H](NC(=O)[C@H](CO)NC(=O)[C@H](Cc1ccc(O)cc1)NC(=O)[C@H](CO)NC(C)=O)C(=O)N[C@H]1CCC(=O)N[C@@H](CCCCN)C(=O)N[C@@H](CCCCN)C(=O)NCCCC[C@@H](C(=O)N2CCC[C@H]2C(=O)N[C@H](C(N)=O)C(C)C)NC(=O)CNC(=O)[C@H](Cc2c[nH]c3ccccc23)NC(=O)[C@H](CCCNC(=N)N)NC(=O)[C@@H](Cc2ccccc2)NC(=O)[C@H](Cc2c[nH]cn2)NC1=O` [SHU 9009], the “Potencies Relative to α-MSH, Lizard Skin Assay” value in test [1] is reported as 5. Further, the “Potencies Relative to α-MSH, Frog Skin Assay” value in test [3] is 100. Regarding `CCCC[C@H](NC(=O)[C@H](CO)NC(=O)[C@H](Cc1ccc(O)cc1)NC(=O)[C@H](CO)NC(C)=O)C(=O)N[C@H]1CCC(=O)N[C@@H](CCCCN)C(=O)N[C@@H](CCCNC(=N)N)C(=O)NCCCC[C@@H](C(=O)N2CCC[C@H]2C(=O)N[C@H](C(N)=O)C(C)C)NC(=O)CNC(=O)[C@H](Cc2c[nH]c3ccccc23)NC(=O)[C@H](CCCNC(=N)N)NC(=O)[C@@H](Cc2ccccc2)NC(=O)[C@H](Cc2c[nH]cn2)NC1=O` [SHU 9010], in test [3], the “Creeping potency (percentage skin darkening at a particular dose increases with time)” value was “exhibited creeping potency” and the “Potencies Relative to α-MSH, Frog Skin Assay” value was 145.

Regarding `CC(=O)N[C@@H](CO)C(=O)N[C@@H](Cc1ccc(O)cc1)C(=O)N[C@@H](CCCCN)C(=O)N[C@@H](CCCCN)C(=O)N[C@H]1CCC(=O)N[C@@H](CCCNC(=N)N)C(=O)N[C@@H](CCCCN)C(=O)NCCCC[C@@H](C(=O)N2CCC[C@H]2C(=O)N[C@H](C(N)=O)C(C)C)NC(=O)CNC(=O)[C@H](Cc2c[nH]c3ccccc23)NC(=O)[C@H](CCCNC(=N)N)NC(=O)[C@@H](Cc2ccccc2)NC(=O)[C@H](Cc2c[nH]cn2)NC1=O` [SHU 9013], in test [1], the “Potencies Relative to α-MSH, Lizard Skin Assay” value came to 4. For the same compound, in test [3], the “Potencies Relative to α-MSH, Frog Skin Assay” value amounted to 1. The like results for `CCCC[C@H](NC(=O)[C@H](CO)NC(=O)[C@H](Cc1ccc(O)cc1)NC(=O)[C@H](CO)NC(C)=O)C(=O)N[C@H]1CCC(=O)N[C@@H](CCCNC(=N)N)C(=O)N[C@@H](CCCCN)C(=O)NCCCC[C@@H](C(=O)N2CCC[C@H]2C(=O)N[C@H](C(N)=O)C(C)C)NC(=O)CNC(=O)[C@H](Cc2c[nH]c3ccccc23)NC(=O)[C@H](CCCNC(=N)N)NC(=O)[C@@H](Cc2ccccc2)NC(=O)[C@H](Cc2c[nH]cn2)NC1=O` [SHU 9014] were, in that order, 4 and 20.

On to `CCCC[C@H](NC(C)=O)C(=O)N[C@H]1CC(=O)N[C@@H](CCCCN)C(=O)N[C@@H](CCCNC(=N)N)C(=O)NCCCC[C@@H](C(N)=O)NC(=O)[C@H](Cc2c[nH]c3ccccc23)NC(=O)[C@H](CCCNC(=N)N)NC(=O)[C@@H](Cc2ccccc2)NC(=O)[C@H](Cc2c[nH]cn2)NC1=O` [SHU 9018], for which, in test [1], the “Potencies Relative to α-MSH, Lizard Skin Assay” value was 10. Moreover, the “Potencies Relative to α-MSH, Frog Skin Assay” value in test [3] turned out to be 0.05.

With `CCCC[C@H](NC(C)=O)C(=O)N[C@H]1CC(=O)N[C@@H](CCCCN)C(=O)N[C@@H](CCCCN)C(=O)NCCCC[C@@H](C(N)=O)NC(=O)[C@H](Cc2c[nH]c3ccccc23)NC(=O)[C@H](CCCNC(=N)N)NC(=O)[C@@H](Cc2ccccc2)NC(=O)[C@H](Cc2c[nH]cn2)NC1=O` [SHU 9019], in test [1], the “Potencies Relative to α-MSH, Lizard Skin Assay” value is on record as 12.5. `CCCC[C@H](NC(C)=O)C(=O)N[C@H]1CC(=O)N[C@@H](CCCNC(=N)N)C(=O)N[C@@H](CCCNC(=N)N)C(=O)NCCCC[C@@H](C(N)=O)NC(=O)[C@H](Cc2c[nH]c3ccccc23)NC(=O)[C@H](CCCNC(=N)N)NC(=O)[C@@H](Cc2ccccc2)NC(=O)[C@H](Cc2c[nH]cn2)NC1=O` [SHU 9020]: in test [1], the “Potencies Relative to α-MSH, Lizard Skin Assay” value is listed as 6.7. Moreover, in test [3], the “Potencies Relative to α-MSH, Frog Skin Assay” value was found to be 0.14. The corresponding values for `CCCC[C@H](NC(C)=O)C(=O)N[C@H]1CC(=O)N[C@@H](CCCNC(=N)N)C(=O)N[C@@H](CCCCN)C(=O)NCCCC[C@@H](C(N)=O)NC(=O)[C@H](Cc2c[nH]c3ccccc23)NC(=O)[C@H](CCCNC(=N)N)NC(=O)[C@@H](Cc2ccccc2)NC(=O)[C@H](Cc2c[nH]cn2)NC1=O` [SHU 9021] are 13.4 and 0.25. For the compound `CCCC[C@@H]1NC(=O)CC[C@H](NC(=O)[C@H](CCCC)NC(=O)[C@H](CO)NC(=O)[C@H](Cc2ccc(O)cc2)NC(=O)[C@H](CO)NC(C)=O)C(=O)N[C@@H](Cc2c[nH]cn2)C(=O)N[C@H](Cc2ccccc2)C(=O)N[C@@H](CCCNC(=N)N)C(=O)N[C@@H](Cc2c[nH]c3ccccc23)C(=O)NCC(=O)N[C@H](C(=O)N2CCC[C@H]2C(=O)N[C@H](C(N)=O)C(C)C)CCCCNC(=O)[C@H](CCCC)NC1=O` [SHU 9026], in test [3], the “Potencies Relative to α-MSH, Frog Skin Assay” value is 7. The same measure, in the same setting: as for `CC(=O)N[C@@H](CO)C(=O)N[C@@H](Cc1ccc(O)cc1)C(=O)N[C@@H](CCCCN)C(=O)N[C@@H](CCCCN)C(=O)N[C@@H](CCC(=O)O)C(=O)N[C@@H](Cc1c[nH]cn1)C(=O)N[C@H](Cc1ccccc1)C(=O)N[C@@H](CCCNC(=N)N)C(=O)N[C@@H](Cc1c[nH]c2ccccc12)C(=O)NCC(=O)N[C@@H](CCCCN)C(=O)N1CCC[C@H]1C(=O)N[C@H](C(N)=O)C(C)C` [SHU 9027, Ac[Lys^3,4, DPhe^7]-α-MSH1-13NH2] (Ac-SYKKEH[dF]RWGKPV-NH2), the figure is 0.4. On the same count and under the same terms, in the case of `CCCC[C@H](NC(=O)[C@H](CO)NC(=O)[C@H](Cc1ccc(O)cc1)NC(=O)[C@H](CO)NC(C)=O)C(=O)N[C@H]1CCC(=O)NCCCC[C@@H](C(=O)N2CCC[C@H]2C(=O)N[C@H](C(N)=O)C(C)C)NC(=O)CNC(=O)[C@H](Cc2c[nH]c3ccccc23)NC(=O)[C@H](CCCNC(=N)N)NC(=O)[C@@H](Cc2ccccc2)NC(=O)[C@H](Cc2c[nH]cn2)NC1=O` [SHU-9205] it was 1.3. On the same count and under the same terms, as for `CCCC[C@H](NC(=O)[C@H](CO)NC(=O)[C@H](Cc1ccc(O)cc1)NC(=O)[C@H](CO)NC(C)=O)C(=O)N[C@H]1CCC(=O)N[C@@H](CCC(=O)O)C(=O)N[C@@H](CCC(=O)O)C(=O)NCCCC[C@@H](C(=O)N2CCC[C@H]2C(=O)N[C@H](C(N)=O)C(C)C)NC(=O)CNC(=O)[C@H](Cc2c[nH]c3ccccc23)NC(=O)[C@H](CCCNC(=N)N)NC(=O)[C@@H](Cc2ccccc2)NC(=O)[C@H](Cc2c[nH]cn2)NC1=O` [SHU-9207], the figure is 1.3. `CCCC[C@H](NC(=O)[C@H](CO)NC(=O)[C@H](Cc1ccc(O)cc1)NC(=O)[C@H](CO)NC(C)=O)C(=O)N[C@H]1CCC(=O)N[C@@H](CO)C(=O)N[C@@H](CO)C(=O)NCCCC[C@@H](C(=O)N2CCC[C@H]2C(=O)N[C@H](C(N)=O)C(C)C)NC(=O)CNC(=O)[C@H](Cc2c[nH]c3ccccc23)NC(=O)[C@H](CCCNC(=N)N)NC(=O)[C@@H](Cc2ccccc2)NC(=O)[C@H](Cc2c[nH]cn2)NC1=O` [SHU-9209]: in test [3], the “Potencies Relative to α-MSH, Frog Skin Assay” value was determined as 5. Take `CCCC[C@H](NC(=O)[C@H](CO)NC(=O)[C@H](Cc1ccc(O)cc1)NC(=O)[C@H](CO)NC(C)=O)C(=O)N[C@H]1CCC(=O)N[C@H](CCCCN)C(=O)N[C@H](CCCCN)C(=O)NCCCC[C@@H](C(=O)N2CCC[C@H]2C(=O)N[C@H](C(N)=O)C(C)C)NC(=O)CNC(=O)[C@H](Cc2c[nH]c3ccccc23)NC(=O)[C@H](CCCNC(=N)N)NC(=O)[C@@H](Cc2ccccc2)NC(=O)[C@H](Cc2c[nH]cn2)NC1=O` [SHU-9210]: in test [3], the “Potencies Relative to α-MSH, Frog Skin Assay” value worked out at 3.5.

The values above are taken from patent US5683981A, “Cyclic bridged analogs of α-MSH and methods thereof” (Competitive Technologies, Inc., priority 1995, dated 1997).
